ChEMBL document CHEMBL4004849, “Tetrazolylmethyl quinolines: Design, docking studies, synthesis, anticancer and antifungal analyses” (2017)
Activity calls are given as the source filed them. No cut-off for these calls is given here.

test system: NCI-H460; assay: Growth inhibition of human NCI-H460 cells at 10^-5 M incubated for 48 hrs by sulforhodamine B assay relative to control; assay type: functional; settings: not given

Compound	growth inhibition (GI)
Clc1nc2ccccc2cc1Cn1nnnc1Cc1ccccc1	Active
Cc1ccc2nc(Cl)c(Cn3nnnc3Cc3ccccc3)cc2c1	Active
Fc1ccc2nc(Cl)c(Cn3nnc(Cc4ccccc4)n3)cc2c1	Active
Fc1ccc2nc(Cl)c(Cn3nnnc3Cc3ccccc3)cc2c1	Active
Fc1ccc2nc(Cl)c(Cn3nnnc3CSc3ccccc3)cc2c1	Active
Clc1nc2ccc(Br)cc2cc1Cn1nnnc1CSc1ccccc1	Active
Clc1nc2ccc(Br)cc2cc1Cn1nnc(Cc2ccccc2)n1	Active
Clc1nc2ccccc2cc1Cn1nnnc1CSc1ccccc1	Active

test system: NCI-H522; assay: Growth inhibition of human NCI-H522 cells at 10^-5 M incubated for 48 hrs by sulforhodamine B assay relative to control; assay type: functional; settings: not given

Compound	growth inhibition (GI)
Clc1nc2ccccc2cc1Cn1nnnc1Cc1ccccc1	Active
Cc1ccc2nc(Cl)c(Cn3nnnc3Cc3ccccc3)cc2c1	Active
Fc1ccc2nc(Cl)c(Cn3nnc(Cc4ccccc4)n3)cc2c1	Active
Fc1ccc2nc(Cl)c(Cn3nnnc3Cc3ccccc3)cc2c1	Active
Fc1ccc2nc(Cl)c(Cn3nnnc3CSc3ccccc3)cc2c1	Active
Clc1nc2ccc(Br)cc2cc1Cn1nnnc1CSc1ccccc1	Active
Clc1nc2ccc(Br)cc2cc1Cn1nnc(Cc2ccccc2)n1	Active
Clc1nc2ccccc2cc1Cn1nnnc1CSc1ccccc1	Active

test system: HCT-116; assay: Growth inhibition of human HCT116 cells at 10^-5 M incubated for 48 hrs by sulforhodamine B assay relative to control; assay type: functional; settings: not given

Compound	growth inhibition (GI)
Clc1nc2ccccc2cc1Cn1nnnc1Cc1ccccc1	Active
Cc1ccc2nc(Cl)c(Cn3nnnc3Cc3ccccc3)cc2c1	Active
Fc1ccc2nc(Cl)c(Cn3nnc(Cc4ccccc4)n3)cc2c1	Active
Fc1ccc2nc(Cl)c(Cn3nnnc3Cc3ccccc3)cc2c1	Active
Fc1ccc2nc(Cl)c(Cn3nnnc3CSc3ccccc3)cc2c1	Active
Clc1nc2ccc(Br)cc2cc1Cn1nnnc1CSc1ccccc1	Active
Clc1nc2ccc(Br)cc2cc1Cn1nnc(Cc2ccccc2)n1	Active
Clc1nc2ccccc2cc1Cn1nnnc1CSc1ccccc1	Active

test system: Malme-3M; assay: Growth inhibition of human MALME-3M cells at 10^-5 M incubated for 48 hrs by sulforhodamine B assay relative to control; assay type: functional; settings: not given

Compound	growth inhibition (GI)
Clc1nc2ccccc2cc1Cn1nnnc1Cc1ccccc1	Active
Cc1ccc2nc(Cl)c(Cn3nnnc3Cc3ccccc3)cc2c1	Active
Fc1ccc2nc(Cl)c(Cn3nnc(Cc4ccccc4)n3)cc2c1	Active
Fc1ccc2nc(Cl)c(Cn3nnnc3Cc3ccccc3)cc2c1	Active
Fc1ccc2nc(Cl)c(Cn3nnnc3CSc3ccccc3)cc2c1	Active
Clc1nc2ccc(Br)cc2cc1Cn1nnnc1CSc1ccccc1	Active
Clc1nc2ccc(Br)cc2cc1Cn1nnc(Cc2ccccc2)n1	Active
Clc1nc2ccccc2cc1Cn1nnnc1CSc1ccccc1	Active

test system: MDA-MB-435; assay: Growth inhibition of human MDA-MB-435 cells at 10^-5 M incubated for 48 hrs by sulforhodamine B assay relative to control; assay type: functional; settings: not given

Compound	growth inhibition (GI)
Clc1nc2ccccc2cc1Cn1nnnc1Cc1ccccc1	Active
Cc1ccc2nc(Cl)c(Cn3nnnc3Cc3ccccc3)cc2c1	Active
Fc1ccc2nc(Cl)c(Cn3nnc(Cc4ccccc4)n3)cc2c1	Active
Fc1ccc2nc(Cl)c(Cn3nnnc3Cc3ccccc3)cc2c1	Active
Fc1ccc2nc(Cl)c(Cn3nnnc3CSc3ccccc3)cc2c1	Active
Clc1nc2ccc(Br)cc2cc1Cn1nnnc1CSc1ccccc1	Active
Clc1nc2ccc(Br)cc2cc1Cn1nnc(Cc2ccccc2)n1	Active
Clc1nc2ccccc2cc1Cn1nnnc1CSc1ccccc1	Active

test system: SK-MEL-2; assay: Growth inhibition of human SK-MEL-2 cells at 10^-5 M incubated for 48 hrs by sulforhodamine B assay relative to control; assay type: functional; settings: not given

Compound	growth inhibition (GI)
Clc1nc2ccccc2cc1Cn1nnnc1Cc1ccccc1	Active
Cc1ccc2nc(Cl)c(Cn3nnnc3Cc3ccccc3)cc2c1	Active
Fc1ccc2nc(Cl)c(Cn3nnc(Cc4ccccc4)n3)cc2c1	Active
Fc1ccc2nc(Cl)c(Cn3nnnc3Cc3ccccc3)cc2c1	Active
Fc1ccc2nc(Cl)c(Cn3nnnc3CSc3ccccc3)cc2c1	Active
Clc1nc2ccc(Br)cc2cc1Cn1nnnc1CSc1ccccc1	Active
Clc1nc2ccc(Br)cc2cc1Cn1nnc(Cc2ccccc2)n1	Active
Clc1nc2ccccc2cc1Cn1nnnc1CSc1ccccc1	Active

test system: IGROV-1; assay: Growth inhibition of human IGROV1 cells at 10^-5 M incubated for 48 hrs by sulforhodamine B assay relative to control; assay type: functional; settings: not given

Compound	growth inhibition (GI)
Clc1nc2ccccc2cc1Cn1nnnc1Cc1ccccc1	Active
Cc1ccc2nc(Cl)c(Cn3nnnc3Cc3ccccc3)cc2c1	Active
Fc1ccc2nc(Cl)c(Cn3nnc(Cc4ccccc4)n3)cc2c1	Active
Fc1ccc2nc(Cl)c(Cn3nnnc3Cc3ccccc3)cc2c1	Active
Fc1ccc2nc(Cl)c(Cn3nnnc3CSc3ccccc3)cc2c1	Active
Clc1nc2ccc(Br)cc2cc1Cn1nnnc1CSc1ccccc1	Active
Clc1nc2ccc(Br)cc2cc1Cn1nnc(Cc2ccccc2)n1	Active
Clc1nc2ccccc2cc1Cn1nnnc1CSc1ccccc1	Active

test system: NCI/ADR-RES; assay: Growth inhibition of human NCI-ADR-RES cells at 10^-5 M incubated for 48 hrs by sulforhodamine B assay relative to control; assay type: functional; settings: not given

Compound	growth inhibition (GI)
Clc1nc2ccccc2cc1Cn1nnnc1Cc1ccccc1	Active
Cc1ccc2nc(Cl)c(Cn3nnnc3Cc3ccccc3)cc2c1	Active
Fc1ccc2nc(Cl)c(Cn3nnc(Cc4ccccc4)n3)cc2c1	Active
Fc1ccc2nc(Cl)c(Cn3nnnc3Cc3ccccc3)cc2c1	Active
Fc1ccc2nc(Cl)c(Cn3nnnc3CSc3ccccc3)cc2c1	Active
Clc1nc2ccc(Br)cc2cc1Cn1nnnc1CSc1ccccc1	Active
Clc1nc2ccc(Br)cc2cc1Cn1nnc(Cc2ccccc2)n1	Active
Clc1nc2ccccc2cc1Cn1nnnc1CSc1ccccc1	Active

test system: CAKI-1; assay: Growth inhibition of human Caki1 cells at 10^-5 M incubated for 48 hrs by sulforhodamine B assay relative to control; assay type: functional; settings: not given

Compound	growth inhibition (GI)
Clc1nc2ccccc2cc1Cn1nnnc1Cc1ccccc1	Active
Cc1ccc2nc(Cl)c(Cn3nnnc3Cc3ccccc3)cc2c1	Active
Fc1ccc2nc(Cl)c(Cn3nnc(Cc4ccccc4)n3)cc2c1	Active
Fc1ccc2nc(Cl)c(Cn3nnnc3Cc3ccccc3)cc2c1	Active
Fc1ccc2nc(Cl)c(Cn3nnnc3CSc3ccccc3)cc2c1	Active
Clc1nc2ccc(Br)cc2cc1Cn1nnnc1CSc1ccccc1	Active
Clc1nc2ccc(Br)cc2cc1Cn1nnc(Cc2ccccc2)n1	Active
Clc1nc2ccccc2cc1Cn1nnnc1CSc1ccccc1	Active

test system: DU-145; assay: Growth inhibition of human DU145 cells at 10^-5 M incubated for 48 hrs by sulforhodamine B assay relative to control; assay type: functional; settings: not given

Compound	growth inhibition (GI)
Clc1nc2ccccc2cc1Cn1nnnc1Cc1ccccc1	Active
Cc1ccc2nc(Cl)c(Cn3nnnc3Cc3ccccc3)cc2c1	Active
Fc1ccc2nc(Cl)c(Cn3nnc(Cc4ccccc4)n3)cc2c1	Active
Fc1ccc2nc(Cl)c(Cn3nnnc3Cc3ccccc3)cc2c1	Active
Fc1ccc2nc(Cl)c(Cn3nnnc3CSc3ccccc3)cc2c1	Active
Clc1nc2ccc(Br)cc2cc1Cn1nnnc1CSc1ccccc1	Active
Clc1nc2ccc(Br)cc2cc1Cn1nnc(Cc2ccccc2)n1	Active
Clc1nc2ccccc2cc1Cn1nnnc1CSc1ccccc1	Active

test system: MDA-MB-468; assay: Growth inhibition of human MDA-MB-468 cells at 10^-5 M incubated for 48 hrs by sulforhodamine B assay relative to control; assay type: functional; settings: not given

Compound	growth inhibition (GI)
Clc1nc2ccccc2cc1Cn1nnnc1Cc1ccccc1	Active
Cc1ccc2nc(Cl)c(Cn3nnnc3Cc3ccccc3)cc2c1	Active
Fc1ccc2nc(Cl)c(Cn3nnc(Cc4ccccc4)n3)cc2c1	Active
Fc1ccc2nc(Cl)c(Cn3nnnc3Cc3ccccc3)cc2c1	Active
Fc1ccc2nc(Cl)c(Cn3nnnc3CSc3ccccc3)cc2c1	Active
Clc1nc2ccc(Br)cc2cc1Cn1nnnc1CSc1ccccc1	Active
Clc1nc2ccc(Br)cc2cc1Cn1nnc(Cc2ccccc2)n1	Active
Clc1nc2ccccc2cc1Cn1nnnc1CSc1ccccc1	Active

test system: Candida albicans; assay: Antifungal activity against Candida albicans at 100 ug/ml by disc diffusion method; assay type: functional; settings: read-out: IZ

Compound	zone of inhibition at 100 µg/mL
Clc1nc2ccccc2cc1Cn1nnnc1Cc1ccccc1	10 mm
Cc1ccc2nc(Cl)c(Cn3nnnc3Cc3ccccc3)cc2c1	10 mm
Fc1ccc2nc(Cl)c(Cn3nnc(Cc4ccccc4)n3)cc2c1	12 mm
Fc1ccc2nc(Cl)c(Cn3nnnc3Cc3ccccc3)cc2c1	13 mm
Fc1ccc2nc(Cl)c(Cn3nnnc3CSc3ccccc3)cc2c1	13 mm
Clc1nc2ccc(Br)cc2cc1Cn1nnnc1CSc1ccccc1	12 mm
Clc1nc2ccc(Br)cc2cc1Cn1nnc(Cc2ccccc2)n1	10 mm
Clc1nc2ccccc2cc1Cn1nnnc1CSc1ccccc1	12 mm
